Reference: paper PMC9848421, “Increased brain uptake of pterostilbene loaded folate modified micellar delivery system” (Drug Delivery, 2022)

Assays:
[1] = parameters: method as in Liu et al., 2020; settings: crude Pt; ref Liu et al., 2020; cited from earlier work
red blood cells (RBCs) = assay: In vitro hemolysis assay; assay type: cell-based, SD rats; settings: 37 °C, 1 h
Experimental: The hemocompatibility of F-Pt/M was investigated by hemolysis assay (Valenzuela-Oses et al., [2017]). Fresh SD rats blood was diluted by physiological saline, and red blood cells (RBCs) were collected by centrifugation at 1,200 rpm for 5 min. Following carefully washing and diluting, RBC suspension in normal saline (v/v, 2%) was prepared for hemolysis study. Pt loaded F-Pt/M and free Pt at different drug concentrations were added and mixed by vortex. Then, the samples were incubated at 37 °C for 1 h and after that were centrifuged at 3,000 rpm for 10 min. The supernatant was collected and spectrophotometrically measured on a microplate plate reader (Varioskan LUX, Thermo Scientific Inc., Vantaa, Finland) at 540 nm. Double distilled water and normal saline were employed as positive and negative control, respectively. The hemolysis ratio (HR) of RBCs was calculated using the following equation: (4) HR (%) = (As– A0)/(A100– A0) × 100
Where, As is the absorbance of sample, A0 is the absorbance of negative control and A100 is the absorbance of positive control.

[2] = Brain targeting and brain distribution study in rats; assay type: in vivo, SD rats; settings: single i.v. 3 mg/kg; for Cmax / Tmax / half-life: male, SD, rat, iv
Experimental: Male SD rats weighing 200–250 g (Experimental Animal Center of Dalian Medical University, China) were maintained in standard conditions on a 14 h light/10 h dark cycle provided with food and water ad libitum prior to experimental procedures. All animal experimental protocols were conducted with an approval by the Institutional Animal Care and Use Committee at Dalian Medical University, Dalian, China (Ethics Committee approval number: SCXK 2018-0003) as well as in accordance with the recommendations and policies of the National Institutes of Health (NIH) guide for the care and use of laboratory animals (NIH Publications No. 8023, revised 1978).
Rats were randomly divided into two groups of 24 animals each. Each group received either freshly prepared control free Pt solution in DMSO (10%) in saline solution or formulation of F-Pt/M at a dose equivalent to 3 mg/kg of drug intravenously through lateral tail vein. From each group, three rats were sacrificed at intervals of 5, 15, 30, 45, 60, 90, 120 and180 min post dose. At each time point, blood sample was withdrawn and centrifuged at 3,500 rpm at 4 °C for 10 min. At the same time, the brain sample was harvested, weighed, and homogenized in PBS after cardiac perfusion with 0.9% normal saline solution. Samples were stored at −80 °C until analysis.
Pt from both brain and plasma samples was extracted by liquid-liquid extraction method. Briefly, 20 µL of internal standard working solution (resveratrol, 250 ng/ml) was added to 200 µL aliquot of plasma or brain sample. After 30 seconds of vortexing, 1 mL of extraction solvent, methyl tertiary butyl ether (MTBE) was added. Afterwards, the sample was mixed for 1 min plus centrifugation at 1,000 rpm for 5 min, the supernatant organic layer was carefully transferred and dried using nitrogen gas with gentle heat at 40 °C. The residue was reconstituted with 400 µL of mobile phase and centrifuged at 12,000 rpm for 10 min. The supernatant was transferred to an auto-sampler vial and 10 µL was then injected into the LC-MS/MS system for analysis. An LC-MS/MS analysis method reported by Ferrer (Ferrer et al., [2005]) was employed for the determination of Pt concentration.
Pharmacokinetic parameters, such as Cmax (maximum drug concentration), Tmax (the time to Cmax) and AUC0-t (area under plasma concentration-time curve), were calculated by DAS 2.0 (Drug and Statistics ver 2.0, China). To examine the blood-brain barrier penetration (P) of Pt, the following formula was employed (Yang et al., [2021]): (5) P=AUCbrain/AUCplasma
For brain targeting evaluation, DTI (drug targeting index) was determined using the following equation (Katekar et al., [2020]): (6) DTI = (AUCbrain/AUCplasma)test/(AUCbrain/AUCplasma)control

A172 cells = assay: In vitro cytotoxicity assay (CCK-8); assay type: cell-based; settings: Homo sapiens, A 172, 48 h incubation
Experimental: Human glioblastoma A172 cells (Nanjing KeyGen Biotech Co., Ltd., Nanjing, China) which overexpress folate receptor (Weitman et al., [1992]) were used. Cells were routinely cultured in DMEM medium (Invitrogen, Grand Island, NY, USA) supplemented with 10% fetal bovine serum (Gibco Life Science, Grand Island, NY, USA) and 1% streptomycin/penicillin in a humidified atmosphere of 5% CO2 at 37 °C. Cell passages were carried out according to the manufacturer’s instructions.
To evaluate the inhibitory effects of Pt in various formulations on A172 cells, cytotoxicity assay was carried out with CCK-8 kits. Cells were seeded into 96-well plates at a density of 5,000 cells per well, followed by incubation for 24 h. Cells were treated with free Pt solution (free Pt), Pt loaded micelles (Pt/M), folate modified Pt loaded micelles (F-Pt/M) and blank micelles (BM) at equivalent drug concentrations ranging from 5 μM to 100 μM and further incubated for 48 h. […] After 2 h of incubation at 37 °C, the absorbance intensity was measured by a microplate reader (Varioskan LUX; Thermo Scientific Inc., Vantaa, Finland) at 450 nm. Cell viability was calculated by the ratio between the fluorescence absorbance of the cells treated with various Pt formulations (or blank micelles) and that of the cells incubated with the culture medium only. The IC50 values were calculated by using SPSS 22.0 (IBM Corp., Armonk, NY).

[3] = In vitro drug release by dialysis method; assay type: physicochemical; settings: PBS pH 7.4 containing 0.3% Tween 80
Experimental: With free Pt acetone solution as control, in vitro release of Pt from F-Pt/M formulation was studied by the dialysis method (Khan et al., [2020]; Rubab et al., [2021]; Yang et al., [2021]). Briefly, 1 mL of samples, equivalent to 0.8 mg drug, were filled into dialysis bags (molecular weight cutoff: 3500 Da) and dialyzed against 1,000 mL of phosphate buffer solution of pH values 7.4 (containing 0.3% Tween 80) to mimic drug release in normal tissues/blood. At the desired time intervals, 1 mL of release medium was withdrawn and replaced with 1 mL of fresh medium. The amount of released Pt was measured by spectrophotometer (Thermo Scientific Inc., Finland) with excitation wavelength at 330 nm and emission wavelength at 374 nm.
In order to understand the kinetic model of Pt release from F-Pt/M, zero-order, first-order and Higuchi models were fitted, and the highest adjusted R^2 value was used as the criterion for model selection.

COc1cc(/C=C/c2ccc(O)cc2)cc(OC)c1 [free Pt, 3,5-dimethoxy-4′-hydroxy-trans-stilbene]
solubility in water [1]: about 21 µg/mL
HR (hemolysis ratio) (red blood cells (RBCs); high concentration of 0.5 mg/mL): 11.23%
HR (hemolysis ratio) (red blood cells (RBCs); low concentration of 0.17 mg/mL): 6.46%
HR (hemolysis ratio) (red blood cells (RBCs); medium concentration of 0.33 mg/mL): 10.39%
AUC0-t ([2]; brain): 4369.66 ± 289.88 µg·min/L
Cmax ([2]; brain): 0.0781 ± 0.0139 µg/mL
Tmax ([2]; brain): 35 min
half-life ([2]; brain): 22.4 ± 2.84 min
Cmax ([2]; plasma): 0.221 ± 0.0215 µg/mL
Tmax ([2]; plasma): 5 min
half-life ([2]; plasma): 114 ± 29.2 min
AUC0-t ([2]; plasma): 10107.80 ± 976.65 µg·min/L
IC50 (A172 cells): 24.4 µM
time over which the drug was released [3]: ≤ 5 h
